Laboratory results from article PMC7751416, “Novel positive allosteric modulators of A2B adenosine receptor acting as bone mineralisation promoters” (Journal of Enzyme Inhibition and Medicinal Chemistry, 2020).

Legend:
MSCs [1] = experiment: Quantification of mineralisation (Alizarin Red staining) by MSCs-derived osteoblasts; type: cell-based, human; details: MSCs 15 days in osteogenic medium, mean ± SEM
Procedure: Human bone marrow derived MSCs were cultured in normal growth medium (MSCGM, Sigma Aldrich), plated (5.000 cells/cm^2) in 75-cm^2 flasks and incubated at 37 °C in 5% CO2 and 95% air. The medium was changed to remove non adherent cells every 3 to 4 days and the cells were used at passages 2 to 6.
MSCs were seeded at a density of 3300 cells/cm^2 and maintained in growth medium for 2 days. Then, medium was replaced with Mesenchymal Stem Cell Osteogenic Differentiation Medium (Cat. N. C-28013, Sigma Aldrich) and treated in the absence (control) or in the presence of BAY60-6583 (5 nM) alone or in combination with the new compounds. Treatments were repeated every 3 days and the mineralisation was quantified after 15 days of treatment. The rate of mineralisation was quantified using alizarin red staining as previously reported. Briefly, cells were washed with PBS, fixed (4% formaldehyde in PBS) for 15 min and washed three times with PBS. Then, Alizarin Red S (1:100 in distilled water, adjusted to pH 4.2 and filtered) was added and incubated for 20 min, at the end cells were washed (five times) in 50% ethanol and air dried. For quantification, cells were destained overnight in 10% (w/v) cetylpyridinium chloride at room temperature and the absorbance was read using a spectrophotometer (Victor Wallac 2, Perkin Elmer) at 562 nm.
Figure 1. Effects of the new compounds on mineralisation mediated by MSCs-derived osteoblast. MSCs were cultured for 15 days in osteogenic medium with compounds at 1 μM concentration in the presence (A) or in the absence (B) of the A2B AR agonist BAY60-6583 (5 nM). After treatments, cells were stained with Alizarin Red and mineralisation was evaluated as reported in Experimental section. Data are expressed as percentage of mineralisation versus the CTRL set to 100% and represent the mean ± SEM of at least two independent experiments. Each experiment was performed in duplicate. *p < 0.05; **p < 0.01; ***p < 0.001 vs. CTRL. #p < 0.05; ###p < 0.001 vs. BAY60-6583 or NECA.

MSCs [2] = system: MSCs; design: method as in PMID 25241343; details: read-out: EC50, potency on MSCs; cited from earlier work
[3] = biological target: T1, human A1 adenosine receptors (Homo sapiens, UniProt P30542); experiment: Human A1 adenosine receptor competition binding ([3H]DPCPX, CHO cell membranes); details: radioligand binding, A1 AR
T1 construct: K. N. Klotz, Wurzburg University (gift); host or cells: CHO cells, stably transfected; membranes used
T1 sequence (P30542 1-326): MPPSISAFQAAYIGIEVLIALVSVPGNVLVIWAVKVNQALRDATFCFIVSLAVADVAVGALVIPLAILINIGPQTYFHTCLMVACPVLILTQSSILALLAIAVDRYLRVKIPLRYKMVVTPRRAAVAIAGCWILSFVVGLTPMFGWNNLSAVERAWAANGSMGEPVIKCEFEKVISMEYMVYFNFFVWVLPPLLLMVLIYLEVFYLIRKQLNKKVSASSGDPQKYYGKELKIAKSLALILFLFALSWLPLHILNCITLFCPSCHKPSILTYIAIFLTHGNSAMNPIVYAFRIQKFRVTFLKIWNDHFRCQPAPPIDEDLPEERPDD
Procedure: (§1) ADA (Cat. N. 10102105001) was from Sigma Aldrich (Italy). All other reagents were from commercial sources and of the highest commercially available grade. CHO cells stably expressing human A1, A2A, A3 and A2B ARs were kindly supplied by Prof. K. N. Klotz, Wurzburg University, Germany. MSCs (Cat. N. SCC034) were purchased by Sigma Aldrich (Milan, Italy).
Competition binding experiments were performed as previously reported. […] R-PIA (50 µM) was used for the determination of non-specific binding.

[4] = biological target: T2, human A2A adenosine receptors (Homo sapiens, UniProt P29274); experiment: Human A2A adenosine receptor competition binding ([3H]NECA, CHO cell membranes); details: radioligand binding, A2A AR
T2 construct: K. N. Klotz, Wurzburg University (gift); host or cells: CHO cells, stably transfected; membranes used
T2 sequence (P29274 whole entry): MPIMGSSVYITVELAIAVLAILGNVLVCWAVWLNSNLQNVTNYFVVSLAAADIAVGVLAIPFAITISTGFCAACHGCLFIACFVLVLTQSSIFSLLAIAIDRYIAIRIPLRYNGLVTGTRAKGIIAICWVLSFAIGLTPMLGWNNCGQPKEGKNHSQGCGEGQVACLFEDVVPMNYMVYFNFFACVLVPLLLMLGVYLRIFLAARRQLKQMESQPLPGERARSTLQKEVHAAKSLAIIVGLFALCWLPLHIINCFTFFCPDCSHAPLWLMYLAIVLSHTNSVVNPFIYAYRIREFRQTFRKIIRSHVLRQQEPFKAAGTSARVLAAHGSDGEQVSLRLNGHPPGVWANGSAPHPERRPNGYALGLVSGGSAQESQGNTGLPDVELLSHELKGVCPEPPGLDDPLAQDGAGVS
Procedure: as §1
(§2) Competition binding experiments were performed as previously reported. Briefly, membranes of A2A CHO cells were incubated at 25 °C for 90 min in 500 µL of buffer in the presence of [^3H]NECA (30 nM) and six different concentrations of the newly synthesised compounds. NECA (100 µM) was used for the determination of non-specific binding.

[5] = biological target: T3, human A3 adenosine receptors (Homo sapiens, UniProt P0DMS8); experiment: Human A3 adenosine receptor competition binding ([3H]NECA, CHO cell membranes); details: radioligand binding, A3 AR
T3 construct: K. N. Klotz, Wurzburg University (gift); host or cells: CHO cells, stably transfected; membranes used
T3 sequence (P0DMS8 1-318): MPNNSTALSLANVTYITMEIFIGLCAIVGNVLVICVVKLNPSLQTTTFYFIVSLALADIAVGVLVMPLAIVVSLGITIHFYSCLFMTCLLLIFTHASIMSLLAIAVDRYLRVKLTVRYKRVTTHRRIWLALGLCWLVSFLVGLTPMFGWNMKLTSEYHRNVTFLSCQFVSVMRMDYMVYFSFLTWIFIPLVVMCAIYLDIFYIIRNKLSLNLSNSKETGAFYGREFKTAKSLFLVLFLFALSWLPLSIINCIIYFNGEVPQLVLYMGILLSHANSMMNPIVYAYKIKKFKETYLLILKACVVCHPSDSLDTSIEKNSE
Procedure: as §1
as §2, with “Briefly, cell” for “Briefly,”, “A3” for “A2A”, “180” for “90”

human A2B AR = biological target: T4, human A2B AR (Homo sapiens, UniProt P29275); experiment: Measurement of cyclic AMP levels in A2B AR CHO cells; type: cell-based
T4 construct: K. N. Klotz, Wurzburg University (gift); host or cells: CHO cells, stably transfected
T4 sequence (P29275 1-332): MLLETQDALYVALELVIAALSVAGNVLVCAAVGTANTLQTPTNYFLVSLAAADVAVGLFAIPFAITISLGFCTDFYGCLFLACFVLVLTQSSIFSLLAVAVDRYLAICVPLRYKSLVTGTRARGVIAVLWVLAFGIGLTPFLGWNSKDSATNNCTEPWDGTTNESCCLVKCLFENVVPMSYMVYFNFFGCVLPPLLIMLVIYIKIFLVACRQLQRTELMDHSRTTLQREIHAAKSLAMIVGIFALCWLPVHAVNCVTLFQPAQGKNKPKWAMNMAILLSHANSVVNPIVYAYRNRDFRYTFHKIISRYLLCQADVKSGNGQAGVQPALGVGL
Procedure: Intracellular cyclic AMP (cAMP) levels were measured using a competitive protein binding method, as previously reported[31] A2B AR CHO cells were seed at a density of 24 000 cell/cm^2 in a 24 multiwell plate. After 48 h, the medium was removed and the cells were incubated at 37 °C for 15 min with 500 µL of Dulbecco’s Modified Eagle Medium (DMEM) in the presence of ADA (1 U/mL) and the phosphodiesterase inhibitor Ro20-1724 (20 µM).
The agonist efficacy profile of the compounds at ARs was evaluated by assessing their ability to modulate intracellular cAMP levels in the absence of standard agonists. The antagonism profile of the new compounds was evaluated by assessing their ability to inhibit 100 nM NECA-mediated accumulation of cAMP. The new compounds were incubated 10 min before the addiction of the agonists. Then, cells were incubated in the reaction medium for 15 min at 37 °C. The reaction was stopped by the removal of the medium and the addition of 0.4 N HCl. After 30 min, lysates were neutralised with 4 N KOH and the suspension was centrifuged at 800 g for 5 min. For the determination of cAMP production, bovine adrenal cAMP-binding protein was incubated with [^3H]cAMP (2 nM) at 0 °C for 150 min in a total volume of 300 µL. Bound radioactivity was separated by rapid filtration. The radioactivity was measured by liquid scintillation spectrometry.
Figure 2. Effects of compound 9 as positive allosteric modulator of the A2B AR. A) Effects of 9 on NECA-mediated cAMP accumulation in human A2B AR-transfected CHO cells. CHO cells were treated with an EC50 NECA concentration (100 nM) in the absence or presence of different concentrations of the tested compound (1 nM–10 μM). […] CHO cells were treated with different NECA concentration (1 nM–10 μM) in the absence or presence of 9 (650 nM or 6.5 μM). After 15 min incubation, the reaction was stopped and the intracellular cAMP levels were quantified. The data are expressed as the percentage of cAMP/well versus the maximal NECA effect, which was set to 100% and represent the mean ± SEM of at least three different experiments. Each experiment was performed in duplicate.

[6] = compound 1 μM alone, in the absence of BAY60-6583
[7] = compound 1 μM in the presence of BAY60-6583 (5 nM)
[8] = NECA concentration-response curves (1 nM-10 μM) in absence or presence of 9 (650 nM and 6.5 µM)

| SMILES | percentage of mineralisation versus the CTRL set to 100% (MSCs [1]; [6]) | percentage of mineralisation versus the CTRL set to 100% (MSCs [1]; [7]) | melting point | other results |
| --- | --- | --- | --- | --- |
| N#Cc1c(N)nc(SCC(N)=O)c(C#N)c1-c1ccc(OCC2CC2)cc1 [BAY60-6583, reference compound] |  |  |  | percentage of mineralisation versus the CTRL set to 100% (MSCs [1]; BAY60-6583 5 nM alone): 129.5 ± 1.9%; EC50 (MSCs [2]): 6 nM |
| O=C(Nc1ccccc1)C(=O)c1cn(CCc2ccccc2)c2ccccc12 [Compound 4] | 130.0 ± 6.8% | 179.2 ± 9.6% | 139 to 140 °C |  |
| O=C(NCc1ccccc1)C(=O)c1cn(CCc2ccccc2)c2ccccc12 [Compound 5, N-Benzyl-2-(1-phenylethyl-1H-indol-3-yl)glyoxylamide] | 128.7 ± 3.6% | 152.3 ± 4.3% | 83 to 85 °C |  |
| Cn1cc(C(=O)C(=O)Nc2ccccc2)c2ccccc21 [Compound 6, N-Phenyl-2-(1-methyl-1H-indol-3-yl)glyoxylamide] |  |  | 167 to 169 °C |  |
| Cn1cc(C(=O)C(=O)NCc2ccccc2)c2ccccc21 [Compound 7, N-Benzyl-2-(1-methyl-1H-indol-3-yl)glyoxylamide] |  |  | 147 to 149 °C |  |
| O=C(NCc1ccccc1)C(=O)c1csc2ccccc12 [Compound 8, N-Benzyl-2-(benzothien-3-yl)glyoxylamide] | inactivity |  | 87 to 89 °C |  |
| O=C(NCc1ccc(Cl)cc1)C(=O)c1cc2ccccc2o1 [Compound 9, N-(4-Chlorobenzyl)-2-(benzofuran-2-yl)glyoxylamide] | 111.5 ± 4.6% | 156.8 ± 7.6% | 137 to 139 °C | Ki [3]: > 10000 nM; Ki [4]: > 10000 nM; Ki [5]: > 10000 nM; effect on efficacy of NECA in stimulating cAMP accumulation (human A2B AR; [8]): significantly enhanced the efficacy of NECA; effect on potency of NECA in stimulating cAMP accumulation (human A2B AR; [8]): without affecting agonist potency; EC50 (human A2B AR; compound 1 nM-10 µM in the presence of NECA 100 nM, human A2B AR-transfected CHO cells, read-out: EC50, positive allosteric modulation of A2B AR (NECA-mediated cAMP accumulation)): 636 ± 65.3 nM; % cAMP production (vs NECA 100 nM set to 100%), Alone (human A2B AR; compound 10 µM alone, CHO cells expressing human A2B AR, mean ± SEM): 2.7 ± 1.3%; % cAMP production (vs NECA 100 nM set to 100%), + agonist (human A2B AR; compound 10 µM in the presence of NECA (100 nM), CHO cells expressing human A2B AR, mean ± SEM): 184.0 ± 11.7 % |
| O=C(NCc1ccccc1)C(=O)c1cccs1 [Compound 10, N-Benzyl-2-(thien-2-yl)glyoxylamide] | inactivity | 150.6 ± 2.6% | 95.6 to 95.8 °C |  |
| Cn1cc(C(=O)C(=O)c2ccccc2)c2ccccc21 [Compound 13, 1-(1-Methyl-1H-indol-3-yl)-2-phenyl-1,2-ethanedione] |  |  | 88 to 90 °C |  |
